Legend:
guinea pig trachea = experiment: Isolated guinea pig trachea: anti-contractional activity against carbachol; details: carbachol 10^-4 M, isolated guinea pig trachea; mean of 5 to 6 determinations
Method: Guinea pigs of both sexes weighing on average 400 to 600 g are sacrificed, and the tracheas are removed and placed at 37° C. in an oxygenated environment (95% O2 -5% CO2) in Krebs fluid of the following composition (mM): NaCl (116), MgSO4 (1.2), KCl (3.7), CaCl2 (2.6), KH2 PO4 (2.2), NaHCO3 (24.9), glucose (10). The tracheal segments are then mounted horizontally between two hooks, one of which is fixed to the base of the isolated organ cell and the other is attached to a myograph under a tension of 0.5 g. The organ is left at rest for one hour and is subjected to four washes. The contraction-inducing reagent (carbachol) is added at a concentration (10^-4 M) greater than the concentration giving the maximum effect. After stabilization of the contractional effect, gradually increasing accumulative amounts of the test products are added to the cell. The bronchodilatory effect is measured as the percentage inhibition of the maximal contraction and EC50 represents the concentration inhibiting this concentration by 50%.

[1] = system: histamine-induced bronchoconstriction, guinea pigs; experiment: Antibronchospastic activity: histamine-induced bronchospasm in anesthetized guinea pigs; assay type: in vivo, guinea pig; details: intravenous, 30 seconds before histamine; mean of 5 to 8 determinations
Method: Guinea pigs of both sexes weighing between 400 and 600 g are anesthetized with ethyl carbamate ([…] i.p.). After tracheotomy, the animal is placed under artificial respiration at a constant flowrate (Palmer pump 1 m1/100 g×60/min). A take-off at the tracheal cannula enables the volume of air to be gaged at each inhalation by means of a Marey drum. Bronchospasm is induced by intraveneous (jugular) administration of histamine. For each animal, the dose of histamine (8 to 12 μg/kg) inducing an increase in the recording trace equal to double its initial value is determined. The dose adopted should provide three identical responses at intervals of 10 minutes.
The test product is administered intraveneously and then, 30 seconds later, histamine is administered again.

duodenum = experiment: Antispasmodic activity: barium chloride-induced contraction of isolated rat duodenum (Magnus); details: barium chloride 10^-4 M, isolated rat duodenum, 37° C.; mean of 5 to 6 determinations
Method: Fragments of duodenum are removed from male rats (200 g), fasted for 24 hours and killed by decapitation, and are mounted, after being washed, in a thermostatted (37° C.) isolated organ cell and maintained in survival in Tyrode's solution according to Magnus's classical technique.
The spasmogenic agent used is barium chloride (10^-4 M).
In the first instance, the spasmogenic agent is added to the nutrient bath and, as soon as the contraction of the organ reaches its maximum, the relaxant agent is added to the medium. Working in relation to a fixed concentration of barium chloride with variable concentrations of relaxant, the ED50 of the latter, capable of reducing the induced contraction by 50%, is determined.
The results expressed in Table IV below show the ratio ED50 Theo/ED50 product, established on the basis of the mean of the results of 5 to 6 determinations per product (ED50theophylline=8×10^-4 M).

mice = experiment: Motor activity: spontaneous activity in mice (neurosedative effect); assay type: in vivo, mouse; details: male mice, 50 minutes
Method: The measurement of the neurosedative effect is based on the test of activity measurements in mice. […] Five minutes after the administration, the animals are placed in activity-measuring cages, which record their movements digitally by means of the interruption of beams of light. The results are recorded in Table IX and expressed as the percentage variation (increase or decrease ) in activity compared with the controls during a period of 50 minutes following the administration.

| SMILES | ED50 Theo/ED50 product (bronchospasm induced in guinea pigs) [1] | further results |
| --- | --- | --- |
| Nc1nccn2ccnc12 [Compound 1, 8-aminoimidazo[1,2-a]pyrazine] |  | EC50 Theo/EC50 product (anti-contractional activity, trachea) (guinea pig trachea): 1.5 |
| CNc1nccn2ccnc12 [Compound 2, 8-methylaminoimidazo[1,2-a]pyrazine] |  | EC50 Theo/EC50 product (anti-contractional activity, trachea) (guinea pig trachea): < 1 |
| CCNc1nccn2ccnc12 [Compound 3, 8-ethylaminoimidazo[1,2-a]pyrazine] |  | EC50 Theo/EC50 product (anti-contractional activity, trachea) (guinea pig trachea): 1 |
| c1cn2ccnc2c(N2CCOCC2)n1 [Compound 4, 8-Morpholinoimidazo[1,2-a]pyrazine] |  | EC50 Theo/EC50 product (anti-contractional activity, trachea) (guinea pig trachea): < 1 |
| Nc1nccn2c(Br)cnc12 [Compound 5, 8-amino-3-bromoimidazo[1,2-a]pyrazine] | 2 | EC50 Theo/EC50 product (anti-contractional activity, trachea) (guinea pig trachea): 11 |
| CCNc1nccn2c(Br)cnc12 [Compound 7] |  | EC50 Theo/EC50 product (anti-contractional activity, trachea) (guinea pig trachea): 5 |
| Brc1cn2ccnc2c(N2CCOCC2)n1 [Compound 11, 6-bromo-8-morpholinoimidazo[1,2-a]pyrazine] | 1 | EC50 Theo/EC50 product (anti-contractional activity, trachea) (guinea pig trachea): < 1 |
| CCNc1ncc(Cl)n2ccnc12 [Compound 12, 5-Chloro-8-ethylaminoimidazo[1,2-a]pyrazine] |  | ED50 Theo/ED50 product (antispasmodic activity) (duodenum): 27 |
| Nc1nc(Br)cn2c(Br)cnc12 [Compound 13, 8-Amino-3,6-dibromoimidazo[1,2-a]pyrazine] | 3.5 |  |
| CNc1nc(Br)cn2c(Br)cnc12 [Compound 14, 3,6-dibromo-8-methylaminoimidazo[1,2-a]pyrazine] | 1.9 |  |
| CCNc1nc(Br)cn2c(Br)cnc12 [Compound 15, 3,6-dibromo-8-ethylaminoimidazo[1,2-a]pyrazine] | 1.6 |  |
| Brc1cn2c(Br)cnc2c(N2CCOCC2)n1 [Compound 16, 3,6-dibromo-8-morpholinoimidazo[1,2-a]pyrazine] | 1 |  |
| CCOC(=O)c1cn2ccnc(NC)c2n1 [Compound 18, ethyl 8-methylaminoimidazo[1,2-a]pyrazine-2-carboxylate] | 1 |  |
| CCCNc1nccn2cc(C(=O)OCC)nc12 [Compound 19, ethyl 8-propylaminoimidazo[1,2-a]pyrazine-2-carboxylate] | < 1 |  |
| CCOC(=O)c1cn2ccnc(N3CCCCC3)c2n1 [Compound 20, ethyl 8-piperidylimidazo[1,2-a]pyrazine-2-carboxylate] | 1 |  |
| CCOC(=O)c1cn2ccnc(N3CCOCC3)c2n1 [Compound 21, ethyl 8-morpholinylimidazo[1,2-a]pyrazine-2-carboxylate] | < 1 |  |
| CCOC(=O)c1cn2cc(Br)nc(N)c2n1 [Compound 22, ethyl 8-amino-6-bromoimidazo[1,2-a]pyrazine-2-carboxylate] | 1.5 |  |

| SMILES | ED50 Theo/ED50 product (bronchospasm induced in guinea pigs) [1] | further results |
| --- | --- | --- |
| CCOC(=O)c1cn2cc(Br)nc(NC)c2n1 [Compound 23, ethyl 6-bromo-8-methylaminoimidazo[1,2-a]pyrazine-2-carboxylate] | 1 | spontaneous activity - % variation compared with the controls, decrease (.dwnarw.) (mice; 55 μmol/kg intraperitoneally): 43%; spontaneous activity - % variation compared with the controls, decrease (.dwnarw.) (mice; 166 μmol/kg intraperitoneally): 56% |
| CCNc1nc(Br)cn2cc(C(=O)OCC)nc12 [Compound 24, ethyl 6-bromo-8-ethylaminoimidazo[1,2-a]pyrazine-2-carboxylate] | 1 |  |
| CCCNc1nc(Br)cn2cc(C(=O)OCC)nc12 [Compound 25, ethyl 6-bromo-8-propylaminoimidazo[1,2-a]pyrazine-2-carboxylate] | < 1 |  |
| CCCCNc1nc(Br)cn2cc(C(=O)OCC)nc12 [Compound 26, ethyl 6-bromo-8-butylaminoimidazo[1,2-a]pyrazine-2-carboxylate] | < 1 |  |
| CCOC(=O)c1cn2cc(Br)nc(NC(C)CC)c2n1 (centres unmarked) [Compound 27, ethyl 6-bromo-8-sec-butylaminoimidazo[1,2-a]pyrazine-2-carboxylate] | < 1 |  |
| CCOC(=O)c1cn2cc(Br)nc(N3CCCCC3)c2n1 [Compound 28, ethyl 6-bromo-8-piperidylimidazo[1,2-a]pyrazine-2-carboxylate] | < 1 |  |
| CCOC(=O)c1cn2cc(Br)nc(N3CCOCC3)c2n1 [Compound 29, ethyl 6-bromo-8-morpholinylimidazo[1,2-a]pyrazine-2-carboxylate] | 1 |  |
| CCOC(=O)c1cn2cc(Br)nc(NCCO)c2n1 [Compound 30, ethyl 6-bromo-8-(2-hydroxyethylamino)imidazo[1,2-a]pyrazine-2-carboxylate] | < 1 |  |
| CNc1nc(Br)cn2cc(C(N)=O)nc12 [Compound 31, 6-Bromo-8-methylaminoimidazo[1,2-a]pyrazine-2-carboxamide] | 1 |  |
| CCOC(=O)Cc1cn2cc(Br)nc(N)c2n1 [Compound 32, ethyl 8-amino-6-bromoimidazo[1,2-a]pyrazine-2-acetate] | 1.6 |  |
| CCOC(=O)Cc1cn2cc(Br)nc(NC)c2n1 [Compound 33, Ethyl 6-bromo-8-methylaminoimidazo[1,2-a]pyrazine-2-acetate] | 1 |  |
| CNC(=O)c1nc2c(NC)nc(Cl)c(Cl)n2c1Cl [Compound 34, 3,5,6-Trichloro-8-methylamino-N-methylimidazo[1,2-a]pyrazine-2-carboxamide] | 1.2 |  |
| N#Cc1cn2cc(Br)nc(N3CCOCC3)c2n1 [Compound 35, 6-Bromo-8-morpholinoimidazo[1,2-a]pyrazine-2-carbonitrile] | < 1 |  |
| Brc1cn2ccnc2c(NCc2ccco2)n1 [Compound 36, 6-bromo-8-furfurlaminoimidazo[1,2-a]pyrazine] | < 1 |  |
| Brc1cn2c(Br)cnc2c(NCc2ccco2)n1 [Compound 37, 3,6-dibromo-8-furfurylaminoimidazo[1,2-a]pyrazine] | 1.4 |  |
| Brc1cn2c(Br)cnc2c(N2CCCCC2)n1 [Compound 38, 3,6-dibromo-8-piperidylimidazo[1,2-a]pyrazine] | 1.1 |  |
| c1coc(CNc2nccn3ccnc23)c1 [Compound 39, 8-furfurylaminoimidazo[1,2-a]pyrazine] |  | EC50 Theo/EC50 product (anti-contractional activity, trachea) (guinea pig trachea): < 1 |

— patent US5028605A, “8-alkylaminoimidazo(1,2-a)pyrazines and derivatives, their preparation and their application in therapy” (l'Universite de Montpellier I, priority 1986, dated 1991)
